Holding throughout (type): cell-based
Experiment [1] concerns the target Ba/F3 EGFR-D770-N771ins_SVD (Homo sapiens, UniProt P00533, DUP768-770, cells depend on it). The experiment in a line: Proliferation experiment of Ba/F3 cell line, EGFR-D770-N771ins_SVD (CellTiter-Glo). The following applies: cultured for 72 hrs with compound, CTG analysis, read-out: Ba/F3 EGFR-D770-N771ins_SVD IC50. The method, then:
(§1) Proliferation Experiment of Ba/F3 Cell Line
(§2) (I) Reagents and Materials
(§3) • Fetal bovine serum FBS (GBICO, Cat #10099-141); • CellTiter-Glo® luminescent cell viability assay kit (Promega, Cat #G7572); • Black transparent flat-bottom 96 well plate (Corning®, Cat #3603). (II) Instruments • SpectraMax multi-label microplate reader MD, 2104-0010A; • Carbon dioxide incubator, Thermo Scientific 3100 series; • Biological safety cabinet, Thermo Scientific, 1300 series model A2; • Inverted microscope, Olympus, CKX41SF; • Siemens refrigerator KK25E76TI. (III) Cell Lines and Culture Conditions
(§4) (IV) Experimental Procedures 1. Cell Culture and Inoculation: • (1) Cells in the logarithmic growth phase were harvested and counted using a […]. Cell viability was detected by Trypan Blue Dye Exclusion Method to ensure cell viability above 90%. • (2) The cell concentration was adjusted to reach a desired final density; 90 μL of cell suspension was added to the 96-well plate. • (3) The cells were incubated overnight in the 96-well plate at 37° C., 5% CO2 and at 95% humidity.
(§5) 2. T0 Reference Data: • (1) 10 μL PBS was added to each well of the TO plate containing the cells. • (2) The CTG reagent was thawed and the cell plate was equilibrated to room temperature for 30 min. • (3) An equal volume of CTG solution was added to each well. • (4) The cells were lysed by shaking on an orbital shaker for 5 min. • (5) The cell plate was left at room temperature for 20 min to stabilize the luminescence signal. • (6) The fluorescence signal values of TO were read. 3. Dilution and Addition of Compounds • (1) According to the compound information table, a corresponding volume of DMSO was added to the corresponding compound powder to prepare a 10 mM stock solution. • (2) A 1000-fold, 3.16-fold-diluted compound solution was prepared. • (3) The 1000× diluted compound solution was diluted 100-fold with PBS to prepare a 10-fold compound solution with a maximum concentration of […], including 9 concentrations, with 3.16-fold dilution, and 10 μL of the medicament solution was added to each well of the 96-well plate to seed the cells. Triplicate wells were set for each compound concentration, with a final concentration of DMSO being 0.1%. • (4) The cells were placed in the 96-well plate filled with the medicament at 37° C., 5% CO2 and at 95% humidity, and cultured for 72 hrs before CTG analysis. 4. Fluorescence Signal Reading • (1) The CTG reagent was thawed and the cell plate was equilibrated to room temperature for 30 min. • (2) An equal volume of CTG solution was added to each well. • (3) The cells were lysed by shaking on an orbital shaker for 5 min. • (4) The cell plate was left at room temperature for 20 min to stabilize the fluorescence signal. • (5) The fluorescence values were read. 5. Data Processing
(§6) Data were analyzed using GraphPad Prism 7.0 software and fitted data were regressed using non-linear S-curves to obtain dose-response curves from which IC50 values (in nM) were calculated.

Experiment [2] deals with Ba/F3 EGFR-V769_D770insASV (Homo sapiens, UniProt P00533, DUP767-769, cells depend on it). The experiment in a line: Proliferation experiment of Ba/F3 cell line, EGFR-V769_D770insASV (CellTiter-Glo). Conditions: cultured for 72 hrs with compound, CTG analysis, read-out: Ba/F3 EGFR-V769_D770insASV IC50. How it is done:
as §1, §2, §3, §4, §5, §6

In experiment [3] the test system is A431 (EGFR-WT). The experiment in a line: Proliferation experiment, A431 cell line (CellTiter-Glo). The following applies: Homo sapiens, A-431; A431 cells, cultured for 72 hrs with compound, CTG analysis. The method, then: [The procedure below names another cell line; the source lists this cell line under the same test.] as §1, §2, §3, §4, §5, §6
A general note: In ATP-based viability assays light output follows the ATP content of the culture.

Ba/F3 EGFR-D770-N771ins_SVD, sequence (P00533 with tags, fused parts or gaps DUP768-770): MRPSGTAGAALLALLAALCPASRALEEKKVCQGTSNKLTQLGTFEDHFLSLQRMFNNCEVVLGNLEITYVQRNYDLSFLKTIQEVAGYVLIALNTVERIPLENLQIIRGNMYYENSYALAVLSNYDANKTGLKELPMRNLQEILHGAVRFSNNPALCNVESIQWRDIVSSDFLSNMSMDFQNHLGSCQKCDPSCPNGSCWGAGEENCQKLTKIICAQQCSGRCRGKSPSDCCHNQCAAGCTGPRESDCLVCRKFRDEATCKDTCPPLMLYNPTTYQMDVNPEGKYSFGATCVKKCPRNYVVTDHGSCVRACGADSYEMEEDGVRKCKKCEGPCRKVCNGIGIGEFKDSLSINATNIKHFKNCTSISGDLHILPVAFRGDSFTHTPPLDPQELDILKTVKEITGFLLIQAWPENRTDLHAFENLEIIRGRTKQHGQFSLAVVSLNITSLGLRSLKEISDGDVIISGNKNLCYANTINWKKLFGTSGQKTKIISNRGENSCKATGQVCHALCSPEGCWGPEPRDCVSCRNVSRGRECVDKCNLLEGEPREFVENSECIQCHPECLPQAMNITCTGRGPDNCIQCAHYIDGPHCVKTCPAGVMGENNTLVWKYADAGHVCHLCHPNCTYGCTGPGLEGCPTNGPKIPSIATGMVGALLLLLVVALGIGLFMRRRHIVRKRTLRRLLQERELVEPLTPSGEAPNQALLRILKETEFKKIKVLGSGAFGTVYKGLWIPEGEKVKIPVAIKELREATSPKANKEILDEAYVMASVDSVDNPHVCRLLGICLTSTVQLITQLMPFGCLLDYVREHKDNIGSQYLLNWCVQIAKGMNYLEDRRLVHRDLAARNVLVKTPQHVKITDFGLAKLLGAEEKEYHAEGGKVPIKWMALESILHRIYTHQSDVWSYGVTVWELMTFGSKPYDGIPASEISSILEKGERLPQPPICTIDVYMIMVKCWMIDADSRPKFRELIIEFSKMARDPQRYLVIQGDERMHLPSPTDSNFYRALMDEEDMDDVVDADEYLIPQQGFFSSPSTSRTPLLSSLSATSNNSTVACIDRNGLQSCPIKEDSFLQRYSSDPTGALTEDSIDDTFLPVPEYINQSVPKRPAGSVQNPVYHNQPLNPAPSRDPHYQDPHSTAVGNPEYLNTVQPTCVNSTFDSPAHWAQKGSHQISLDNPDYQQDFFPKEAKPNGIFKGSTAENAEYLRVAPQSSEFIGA
Ba/F3 EGFR-V769_D770insASV, sequence (P00533 with tags, fused parts or gaps DUP767-769): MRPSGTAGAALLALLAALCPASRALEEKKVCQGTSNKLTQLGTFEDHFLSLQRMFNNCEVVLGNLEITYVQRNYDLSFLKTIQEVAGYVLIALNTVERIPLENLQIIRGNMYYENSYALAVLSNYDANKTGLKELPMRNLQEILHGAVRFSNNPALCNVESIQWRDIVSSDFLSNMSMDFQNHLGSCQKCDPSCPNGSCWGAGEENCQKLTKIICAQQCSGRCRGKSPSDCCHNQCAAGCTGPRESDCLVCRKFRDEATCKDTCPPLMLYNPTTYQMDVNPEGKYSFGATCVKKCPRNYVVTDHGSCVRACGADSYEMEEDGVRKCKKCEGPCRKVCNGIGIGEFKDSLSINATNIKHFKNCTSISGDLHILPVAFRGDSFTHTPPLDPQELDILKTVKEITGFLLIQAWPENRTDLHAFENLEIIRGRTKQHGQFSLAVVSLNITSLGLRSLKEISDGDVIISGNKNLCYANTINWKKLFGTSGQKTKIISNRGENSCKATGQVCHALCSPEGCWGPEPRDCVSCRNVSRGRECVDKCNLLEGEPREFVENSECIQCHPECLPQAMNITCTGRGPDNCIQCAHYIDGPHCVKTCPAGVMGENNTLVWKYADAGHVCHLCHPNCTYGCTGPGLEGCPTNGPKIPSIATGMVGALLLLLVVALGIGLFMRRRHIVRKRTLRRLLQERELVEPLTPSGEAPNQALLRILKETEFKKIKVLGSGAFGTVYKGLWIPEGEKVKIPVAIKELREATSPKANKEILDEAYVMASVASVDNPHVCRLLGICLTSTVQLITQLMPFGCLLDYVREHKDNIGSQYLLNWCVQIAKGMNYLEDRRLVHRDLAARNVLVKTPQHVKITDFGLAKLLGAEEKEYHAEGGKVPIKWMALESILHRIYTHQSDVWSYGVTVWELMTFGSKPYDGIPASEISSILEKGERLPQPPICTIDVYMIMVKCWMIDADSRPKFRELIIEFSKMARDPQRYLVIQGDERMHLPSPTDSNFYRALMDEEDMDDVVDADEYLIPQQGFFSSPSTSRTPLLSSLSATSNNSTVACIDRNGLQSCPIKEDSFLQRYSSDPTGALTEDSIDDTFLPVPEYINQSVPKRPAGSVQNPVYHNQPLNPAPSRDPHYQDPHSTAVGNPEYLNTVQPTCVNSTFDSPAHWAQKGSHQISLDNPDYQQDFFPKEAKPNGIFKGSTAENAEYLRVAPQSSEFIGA

With `C=CC(=O)Nc1cc2c(Nc3cccc(-c4c(F)cc(F)cc4F)c3)ncnc2cc1OCCCN1CCOCC1` [Example 25, N-(7-(3-morpholinopropoxy)-4-((2′,4′,6′-trifluoro-[1,1′-biphenyl]-3-yl)amino)quinazolin-6-yl)acrylamide], the GI50 turned out to be 33.9 nM in experiment [1] and 106 nM in experiment [2]. Further, the IC50 (in general, the concentration at which inhibition is half-maximal) in experiment [3] worked out at 352 nM.
For `C=CC(=O)Nc1cc2c(Nc3cccc(-c4c(F)cccc4F)c3)ncnc2cc1OCCN1CCOCC1` [Example 26, N-(4-((2′,6′-difluoro-[1,1′-biphenyl]-3-yl)amino)-7-(2-morpholinoethoxy)quinazolin-6-yl)acrylamide], the results for the GI50 in experiment [1] and in experiment [2] were 52.1 nM and 97.4 nM, respectively. The IC50 in experiment [3] came out at 33.4 nM.
Consider `C=CC(=O)Nc1cc2c(Nc3cccc(-c4c(F)cccc4F)c3)ncnc2cc1OCCCN1CCOCC1` [Example 27, N-(4-((2′,6′-difluoro-[1,1′-biphenyl]-3-yl)amino)-7-(3-morpholinopropoxy)quinazolin-6-yl)acrylamide], for which the GI50 in experiment [1] stood at 15.2 nM; in experiment [2], 44.3 nM. Moreover, in experiment [3], the IC50 came to 204 nM.
Regarding `C=CC(=O)Nc1cc2c(Nc3cccc(-c4c(F)cccc4F)c3)ncnc2cc1OCCCN1CCN(CC)CC1` [Example 28, N-(4-((2′,6′-difluoro-[1,1′-biphenyl]-3-yl)amino)-7-(3-(4-ethylpiperazin-1-yl)propoxy)quinazolin-6-yl)acrylamide], the results for the GI50 in experiment [1] and in experiment [2] were 22.6 nM and 21 nM, respectively. In experiment [3], the IC50 turned out to be 362 nM.
Taken in the same sequence, the figures for `C=CC(=O)Nc1cc2c(Nc3cccc(-c4c(F)cccc4F)c3)ncnc2cc1OCCCN1CCN(C2CC2)CC1` [Example 29, N-(7-(3-(4-cyclopropylpiperazin-1-yl)propoxy)-4-((2′,6′-difluoro-[1,1′-biphenyl]-3-yl)amino)quinazolin-6-yl)acrylamide] were 37 nM, 44.6 nM and 51.8 nM.
In the same order, the values of `C=CC(=O)Nc1cc2c(Nc3cccc(-c4c(F)cccc4F)c3)ncnc2cc1OCCCN1CCN(C2COC2)CC1` [Example 30, N-(4-((2′,6′-difluoro-[1,1′-biphenyl]-3-yl)amino)-7-(3-(4-(oxetan-3-yl)piperazin-1-yl)propoxy)quinazolin-6-yl)acrylamide] are 25.3 nM, 54.1 nM and 68.1 nM.
Taken in the same sequence, the figures for `C=CC(=O)Nc1cc2c(Nc3cccc(-c4c(F)cccc4F)c3)ncnc2cc1OCCCN1CCN(CC(F)(F)F)CC1` [Example 31, N-(4-((2′,6′-difluoro-[1,1′-biphenyl]-3-yl)amino)-7-(3-(4-(2,2,2-trifluoroethyl)piperazin-1-yl)propoxy)quinazolin-6-yl)acrylamide] were 68.2 nM, 111 nM and 225 nM.
Consider `C=CC(=O)Nc1cc2c(Nc3cccc(-c4c(F)cccc4F)c3)ncnc2cc1OCCCN1CCN(C)C(=O)C1` [Example 32, N-(4-((2′,6′-difluoro-[1,1′-biphenyl]-3-yl)amino)-7-(3-(4-methyl-3-oxopiperazin-1-yl)propoxy)quinazolin-6-yl)acrylamide], for which the GI50 in experiment [1] worked out at 35.9 nM; in experiment [2], 86.3 nM. The IC50 in experiment [3] came out at 205 nM.
Take `C=CC(=O)Nc1cc2c(Nc3cccc(-c4c(F)cccc4F)c3)ncnc2cc1OCCCN1CCN(C)CC1=O` [Example 33, N-(4-((2′,6′-difluoro-[1,1′-biphenyl]-3-yl)amino)-7-(3-(4-methyl-2-oxopiperazin-1-yl)propoxy)quinazolin-6-yl)acrylamide]: the GI50 came to 38.3 nM in experiment [1] and 68.3 nM in experiment [2]. For the same compound, in experiment [3], the IC50 worked out at 458 nM.
In the case of `C=CC(=O)Nc1cc2c(Nc3cccc(-c4c(F)cccc4F)c3)ncnc2cc1OCCCN1CC[C@@H](N(C)C)C1` [Example 34, (R)-N-(4-((2′,6′-difluoro-[1,1′-biphenyl]-3-yl)amino)-7-(3-(3-(dimethylamino)pyrrolidin-1-yl)propoxy)quinazolin-6-yl)acrylamide], the GI50 was determined as 21.5 nM in experiment [1] and 33.1 nM in experiment [2]. Also, in experiment [3], the IC50 was 260 nM.
On to `C=CC(=O)Nc1cc2c(Nc3cccc(-c4c(F)cccc4F)c3)ncnc2cc1OCCCN1CC[C@H](N(C)C)C1` [Example 35, (S)-N-(4-((2′,6′-difluoro-[1,1′-biphenyl]-3-yl)amino)-7-(3-(3-(dimethylamino)pyrrolidin-1-yl)propoxy)quinazolin-6-yl)acrylamide], for which the GI50 is 26.8 nM in experiment [1] and 35.6 nM in experiment [2]. Besides, the half-maximal inhibitory concentration (IC50) in experiment [3] was found to be 193 nM.
Consider `C=CC(=O)Nc1cc2c(Nc3cccc(-c4c(F)cccc4F)c3)ncnc2cc1OCCCN1CC(N(C)C)C1` [Example 36, N-(4-((2′,6′-difluoro-[1,1′-biphenyl]-3-yl)amino)-7-(3-(3-(dimethylamino)azetidin-1-yl)propoxy)quinazolin-6-yl)acrylamide], for which the results for the GI50 in experiment [1] and in experiment [2] were 32.3 nM and 68.6 nM, respectively. The IC50 in experiment [3] came out at 235 nM.
In the case of `C=CC(=O)Nc1cc2c(Nc3cccc(-c4c(F)cccc4F)c3)ncnc2cc1O[C@@H]1CCN(C)C1` [Example 37, (R)-N-(4-((2′,6′-difluoro-[1,1′-biphenyl]-3-yl)amino)-7-((1-methylpyrrolidin-3-yl)oxy)quinazolin-6-yl)acrylamide], the GI50 amounted to 31.6 nM in experiment [1] and 47.5 nM in experiment [2]. In experiment [3], the IC50 amounted to 302 nM.
On to `C=CC(=O)Nc1cc2c(Nc3ccc(F)c(-c4ccccc4F)c3)ncnc2cc1OCCCN1CCOCC1` [Example 38, N-(4-((2′,6-difluoro-[1,1′-biphenyl]-3-yl)amino)-7-(3-morpholinopropoxy)quinazolin-6-yl)acrylamide], for which the GI50 in experiment [1] worked out at 23.6 nM; in experiment [2], 31.5 nM. For the same compound, in experiment [3], the concentration for half-maximal inhibition (IC50) was 431 nM.
For `C=CC(=O)Nc1cc2c(Nc3ccc(F)c(-c4ccccc4F)c3)ncnc2cc1OCCCN1CCN(C)CC1` [Example 39, N-(4-((2′,6-difluoro-[1,1′-biphenyl]-3-yl)amino)-7-(3-(4-methylpiperazin-1-yl)propoxy)quinazolin-6-yl)acrylamide], the GI50 in experiment [1] worked out at 18 nM; in experiment [2] it was 25.6 nM. Also, in experiment [3], the 50% inhibitory concentration (IC50) worked out at 271 nM.
In the case of `C=CC(=O)Nc1cc2c(Nc3ccc(F)c(-c4c(F)cccc4F)c3)ncnc2cc1OCCCN1CCN(C)CC1` [Example 40, N-(7-(3-(4-methylpiperazin-1-yl)propoxy)-4-((2′,6,6′-trifluoro-[1,1′-biphenyl]-3-yl)amino)quinazolin-6-yl)acrylamide], the GI50 in experiment [1] amounted to 15 nM; in experiment [2], 25.4 nM. In addition, in experiment [3], the IC50 came to 372 nM.
With `C=CC(=O)Nc1cc2c(Nc3ccc(F)c(-c4ccc(F)cc4)c3)ncnc2cc1OCCCN1CCOCC1` [Example 41, N-(4-((4′,6-difluoro-[1,1′-biphenyl]-3-yl)amino)-7-(3-morpholinopropoxy)quinazolin-6-yl)acrylamide], the values for the GI50 in experiment [1] and in experiment [2] were 19.2 nM and 36.5 nM, respectively. For the same compound, the IC50 in experiment [3] is 927 nM.
Taken in the same sequence, the figures for `C=CC(=O)Nc1cc2c(Nc3ccc(F)c(-c4ccc(F)cc4)c3)ncnc2cc1OCCCN1CCN(C)CC1` [Example 42, N-(4-((4′,6-difluoro-[1,1′-biphenyl]-3-yl)amino)-7-(3-(4-methylpiperazin-1-yl)propoxy)quinazolin-6-yl)acrylamide] were 31.8 nM, 55.6 nM and 287 nM.
As for `C=CC(=O)Nc1cc2c(Nc3ccc(F)c(-c4ncccc4F)c3)ncnc2cc1OCCCN1CCN(C)CC1` [Example 43, N-(4-((4-fluoro-3-(3-fluoropyridin-2-yl)phenyl)amino)-7-(3-(4-methylpiperazin-1-yl)propoxy)quinazolin-6-yl)acrylamide], the GI50 in experiment [1] is 27.8 nM; in experiment [2], 49.3 nM. The IC50 in experiment [3] was determined as 284 nM.
